{
  "source": "patent US11963962B2",
  "about": "“Platelet count-agnostic methods of treating myelofibrosis” (Sierra Oncology, Inc., priority 2018, dated 2024)",
  "system": "myelofibrosis",
  "assay": "SIMPLIFY-1 Phase 3 trial: transfusion independence and TD to TI conversion",
  "format": "in vivo, human",
  "details": "for TI rate Responders / TI rate proportion (Wilson 95% CI) / TI rate Absolute risk difference (Newcombe 95% CI): SIMPLIFY 1, week 24; for TI rate Absolute risk difference (Newcombe 95% CI) / TD to 12w rolling TI Absolute risk difference (Newcombe 95% CI) / TD to W24 TI Absolute risk difference (Newcombe 95% CI): MMB vs Control",
  "description": "The improved outcome from MMB therapy that results from practicing the subject methods can be manifested as an improvement in one or more clinical endpoints (e.g., as described herein), such as anemia response, in spleen response and/or symptom response. By “anemia response” is meant an increase in the patient's hemoglobin level or a patient who was transfusion dependent becoming transfusion independent. Desirably, a minimum increase in hemoglobin of 0.5 g/dL, such as 1.0 g/dL 1.5 g/dL or 2.0 g/dL lasting a minimum of 8 weeks is achieved, which is the level of improvement specified in the International Working Group (IWG) consensus criteria. However, smaller, but still medically significant, increases in hemoglobin are also considered to be within the term “anemia response”. “Transfusion independence” is an anemia endpoint and refers to a subject who required no RBC transfusions over a 12 week period and had no hemoglobin levels less than 8 g/dL to 8.5 g/dL over the 12 week period. In some embodiments, the 12 week period of transfusion independence is the terminal 12 weeks of a 24 week study period. By red blood cell (RBC) transfusion independence rate at week 24 of a study is meant the proportion of subjects who were transfusion independent at week 24, excluding cases associated with clinically overt bleeding.\nIn the SIMPLIFY-1 trial (NCT01969838), the efficacy and safety of MMB versus ruxolitinib (RUX) was studied in patients with myelofibrosis who were naïve to treatment with a JAK inhibitor and a platelet count of ≥50×10^9/L. Patients (N=432) with high risk or intermediate-2 risk or symptomatic intermediate-1 risk myelofibrosis received 24 weeks of treatment with 200 mg MMB once daily or 20 mg RUX twice a day (or per label), after which all patients could receive open-label momelotinib. […] The primary endpoint was a reduction by at least 35% in the spleen volume at 24 weeks compared with baseline.\nFIG. 8A: SIMPLIFY-1 study of MMB in a first line population previously untreated with JAKi. For SIMPLIFY-1, the goal was non-inferiority over ruxolitinib (RUX) (MMB: N=215 subjects, and RUX: N=217 subjects). FIG. 8B: SIMPLIFY-2 study of second line population of anemic or thrombocytopenic subjects previously treated with RUX (red blood cell (RBC) transfusions on RUX=64%. RUX dose adjustment for: thrombocytopenia=21%; anemia/hematoma=35%). For SIMPLIFY-2, the goal was superiority over best available treatment (BAT) (MMB: N=104 subjects, and BAT: N=52 subjects). In both SIMPLIFY-1 and SIMPLIFY: Primary endpoint: >=35% reduction in spleen volume at 24 weeks. Secondary endpoints: Total symptom score (TSS) response at 24 weeks. Effects on RBC transfusion requirements.\nThe SIMPLIFY 1 clinical trial data was reanalyzed for subgroups of subjects having particular baseline platelet counts in the MMB versus RUX arms of the study.\nPatient data was analyzed according to the following baseline platelet count (PLT) subgroups and in particular according to the threshold PLT of 150×10^9/L: 1) PLT<50×10^9/L; 2) 50×10^9/L≤PLT<100×10^9/L; 3) 100×10^9/L≤PLT<150×10^9/L. The reanalyzed data is presented in Table 13 (SIMPLIFY 1). Selected data is also illustrated in the following figures.",
  "key": {"[1]": {"details": "SIMPLIFY 1, 50 ≤ PLT < 100 ×10^9/L"}, "[2]": {"details": "SIMPLIFY 1, 100 ≤ PLT < 150 ×10^9/L"}, "[3]": {"details": "SIMPLIFY-1, switch from Transfusion Dependent to Independent"}},
  "data": [
    {"smiles": "Cl.N#CCNC(=O)c1ccc(-c2ccnc(Nc3ccc(N4CCOCC4)cc3)n2)cc1", "note": "[MMB, N-(cyanomethyl)-4-(2-(4-morpholinophenylamino)pyrimidin-4-yl)benzamide]", "values": [
      {"measurement": "patients with transfusion independence promoted and maintained (TI rate)", "setting": "SIMPLIFY 1", "value": 66, "unit": "%"},
      {"measurement": "TI rate Responders", "setting": "50 ≤ PLT < 100 ×10^9/L", "value": 11},
      {"measurement": "TI rate proportion (Wilson 95% CI)", "setting": "50 ≤ PLT < 100 ×10^9/L", "value": 0.61},
      {"measurement": "TI rate Absolute risk difference (Newcombe 95% CI)", "setting": "50 ≤ PLT < 100 ×10^9/L", "value": 0.22},
      {"measurement": "TI rate Responders", "setting": "100 ≤ PLT < 150 ×10^9/L", "value": 18},
      {"measurement": "TI rate proportion (Wilson 95% CI)", "setting": "100 ≤ PLT < 150 ×10^9/L", "value": 0.62},
      {"measurement": "TI rate Absolute risk difference (Newcombe 95% CI)", "setting": "100 ≤ PLT < 150 ×10^9/L", "value": 0.17},
      {"measurement": "TI rate Responders", "setting": "ITT", "value": 143},
      {"measurement": "TI rate proportion (Wilson 95% CI)", "setting": "ITT", "value": 0.67},
      {"measurement": "TI rate Absolute risk difference (Newcombe 95% CI)", "setting": "ITT", "value": 0.17},
      {"measurement": "TD to 12w rolling TI Responders", "setting": "[1]", "value": 4},
      {"measurement": "TD to 12w rolling TI proportion (Wilson 95% CI)", "setting": "[1]", "value": 0.40},
      {"measurement": "TD to W24 TI Responders", "setting": "[1]", "value": 5},
      {"measurement": "TD to W24 TI proportion (Wilson 95% CI)", "setting": "[1]", "value": 0.50},
      {"measurement": "TD to 12w rolling TI Absolute risk difference (Newcombe 95% CI)", "setting": "[1]", "value": 0.22},
      {"measurement": "TD to W24 TI Absolute risk difference (Newcombe 95% CI)", "setting": "[1]", "value": 0.32},
      {"measurement": "TD to 12w rolling TI Responders", "setting": "[2]", "value": 5},
      {"measurement": "TD to 12w rolling TI proportion (Wilson 95% CI)", "setting": "[2]", "value": 0.45},
      {"measurement": "TD to W24 TI Responders", "setting": "[2]", "value": 4},
      {"measurement": "TD to W24 TI proportion (Wilson 95% CI)", "setting": "[2]", "value": 0.36},
      {"measurement": "TD to 12w rolling TI Absolute risk difference (Newcombe 95% CI)", "setting": "[2]", "value": 0.15},
      {"measurement": "TD to W24 TI Absolute risk difference (Newcombe 95% CI)", "setting": "[2]", "value": 0.21},
      {"measurement": "TD to 12w rolling TI Responders", "setting": "SIMPLIFY 1, ITT", "value": 19},
      {"measurement": "TD to 12w rolling TI proportion (Wilson 95% CI)", "setting": "SIMPLIFY 1, ITT", "value": 0.36},
      {"measurement": "TD to W24 TI Responders", "setting": "SIMPLIFY 1, ITT", "value": 16},
      {"measurement": "TD to W24 TI proportion (Wilson 95% CI)", "setting": "SIMPLIFY 1, ITT", "value": 0.30},
      {"measurement": "TD to 12w rolling TI Absolute risk difference (Newcombe 95% CI)", "setting": "SIMPLIFY 1, ITT", "value": 0.11},
      {"measurement": "TD to W24 TI Absolute risk difference (Newcombe 95% CI)", "setting": "SIMPLIFY 1, ITT", "value": 0.13},
      {"measurement": "Week 24 TI rate", "setting": "SIMPLIFY 1, ITT, all patients", "value": 67, "unit": "%"},
      {"measurement": "Week 24 TI rate", "setting": "SIMPLIFY 1, ITT, platelets 50-100 (subgroup 2)", "value": 61, "unit": "%"},
      {"measurement": "Week 24 TI rate", "setting": "SIMPLIFY 1, ITT, platelets 100-150 (subgroup 3)", "value": 62, "unit": "%"},
      {"measurement": "Week 24 TI rate", "setting": "SIMPLIFY 1, baseline TSS ≥ 6, all patients", "value": 67, "unit": "%"},
      {"measurement": "Week 24 TI rate", "setting": "SIMPLIFY 1, baseline TSS ≥ 6, platelets 50-100 (subgroup 2)", "value": 64, "unit": "%"},
      {"measurement": "Week 24 TI rate", "setting": "SIMPLIFY 1, baseline TSS ≥ 6, platelets 100-150 (subgroup 3)", "value": 68, "unit": "%"},
      {"measurement": "Week 24 TI rate", "setting": "SIMPLIFY 1, baseline TSS ≥ 10, all patients", "value": 67, "unit": "%"},
      {"measurement": "Week 24 TI rate", "setting": "SIMPLIFY 1, baseline TSS ≥ 10, platelets 50-100 (subgroup 2)", "value": 64, "unit": "%"},
      {"measurement": "Week 24 TI rate", "setting": "SIMPLIFY 1, baseline TSS ≥ 10, platelets 100-150 (subgroup 3)", "value": 68, "unit": "%"},
      {"measurement": "≥8 week transfusion independence rate", "setting": "[3]", "value": 58.5, "unit": "%"},
      {"measurement": "≥12 week transfusion independence rate", "setting": "[3]", "value": 49.1, "unit": "%"}
    ]}
  ]
}
